Series [1] has as its system Tie2− tumor cells (LM2-4luc). Nature of the series: MTS cell viability assay, tumor cells. The series is classed as cell-based, human. Particulars: 48 h MTS; Supplementary Fig S2 (VT 0.1 to 1000 ng/mL). How it is done:
TCs were cultured in DMEM High Glucose basal media supplemented with 5% FBS and grown humidified incubators at 37 °C, 21%O2 and 5%CO2 unless otherwise specified. LM2-4 luc is a highly metastatically aggressive variant of the human breast carcinoma MDA-MB-231 cell line (derived through serial in vivo selection of lung metastases from orthotopic implantations in immunodeficient mice) that has been transfected with a firefly luciferase vector (Man et al, 2007; Ebos et al, 2009). HT29luc is a human colon carcinoma cell line also transfected with the luciferase gene (Hackl et al, 2013). SN12luc refers to a luciferase-tagged and highly metastatic clone of a human renal cell carcinoma cell line, SN12-PM6-L1luc (Jedeszko et al, 2015). MeWo is a human melanoma cell line (Ebos et al, 2009).
2. Endothelial cells (ECs) […]
5,000 LM2-4luc or HMVEC-LBl cells, in 100uL of their regular growth media, were seeded per well on a 96-well plate. […] Absorbances were read at 490nm and background-corrected with reference 560nm readings or acellular treatment-only […]
4. […] Protein concentrations in TC-CM vs. control media were measured using: a Quantikine ELISA kit (R&D Systems DVE00) for human VEGF; a FlowCytomix Multiplex kit (eBioscience BMS810FF) for human IL-6 and IL-8; and a BCA protein assay kit (Thermo Scientific) for total protein.
Background: Formazan colour is commonly taken as a measure of viable cells.

Series [2] concerns endothelial cells. Particulars: cells stimulated with sepsis-related mediators incl. thrombin; ref David et al, 2011; cited from earlier work. An excerpt:
Thrombin is also a metastasis-associated factor that can promote endothelial adhesion and diapedesis of TCs (Nierodzik & Karpatkin, [2006]).

In series [3] the target is T1, human Tie2-Fc (Fc-conjugated extracellular domain of Tie2) (human, UniProt Q02763 23-748).
T1 chain: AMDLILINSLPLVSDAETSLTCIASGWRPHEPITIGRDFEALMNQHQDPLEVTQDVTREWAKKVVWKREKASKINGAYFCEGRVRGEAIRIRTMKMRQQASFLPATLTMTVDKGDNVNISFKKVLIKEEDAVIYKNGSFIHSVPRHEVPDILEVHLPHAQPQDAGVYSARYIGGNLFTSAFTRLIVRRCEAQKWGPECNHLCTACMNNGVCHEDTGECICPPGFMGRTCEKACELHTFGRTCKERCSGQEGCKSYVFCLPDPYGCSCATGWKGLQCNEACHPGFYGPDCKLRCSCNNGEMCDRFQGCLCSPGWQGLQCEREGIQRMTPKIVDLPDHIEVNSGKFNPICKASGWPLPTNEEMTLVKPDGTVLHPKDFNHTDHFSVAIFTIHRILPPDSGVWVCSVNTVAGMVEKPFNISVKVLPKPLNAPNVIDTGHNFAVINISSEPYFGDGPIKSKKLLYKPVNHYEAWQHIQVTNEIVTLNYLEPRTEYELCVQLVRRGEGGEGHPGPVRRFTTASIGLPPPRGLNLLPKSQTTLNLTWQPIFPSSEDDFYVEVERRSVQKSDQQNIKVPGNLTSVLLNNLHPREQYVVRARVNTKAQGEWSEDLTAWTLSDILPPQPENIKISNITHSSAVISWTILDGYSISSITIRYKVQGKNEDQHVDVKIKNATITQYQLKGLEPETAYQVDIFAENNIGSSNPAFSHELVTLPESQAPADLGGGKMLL
Nature of the series: SPR.

In the case of “CHHHRHSF [Vasculotide, 4-armed maleimide-functionalized polyethylene glycol (PEG) backbone to link together four cysteine-capped T7 peptides, that is, CHHHRHSF]”, the “cytotoxic effect on TCs / viability” value in series [1] is “no direct cytotoxic effect”. Also, the endothelial barrier integrity entry in series [2] is on record as “preserve endothelial barrier integrity”.

B1: recombinant human Ang1 (rhAng1) (ligand, UniProt Q15389 16-498, looked up)
chain: HIGCSNQRRSPENSGRRYNRIQHGQCAYTFILPEHDGNCRESTTDQYNTNALQRDAPHVEPDFSSQKLQHLEHVMENYTQWLQKLENYIVENMKSEMAQIQQNAVQNHTATMLEIGTSLLSQTAEQTRKLTDVETQVLNQTSRLEIQLLENSLSTYKLEKQLLQQTNEILKIHEKNSLLEHKILEMEGKHKEELDTLKEEKENLQGLVTRQTYIIQELEKQLNRATTNNSVLQKQQLELMDTVHNLVNLCTKEGVLLKGGKREEEKPFRDCADVYQAGFNKSGIYTIYINNMPEPKKVFCNMDVNGGGWTVIQHREDGSLDFQRGWKEYKMGFGNPSGEYWLGNEFIFAITSQRQYMLRIELMDWEGNRAYSQYDRFHIGNEKQNYRLYLKGHTGTAGKQSSLILHGADFSTKDADNDNCMCKCALMLTGGWWFDACGPSNLNGMFYTAGQNHGKLNGIKWHYFKGPSYSLRSTTMMIRPLDF
notes: angiopoietin-1, human, recombinant; also called angiopoietin-1; source: bought: R&D Systems (named for the Boyden chamber experiments)
With B1, the dissociation rate constant (koff) (as a rule, the first-order rate constant of dissociation) in series [3] is 0.00029 s⁻¹.

The values are drawn from PMC4459817, “Vasculotide reduces endothelial permeability and tumor cell extravasation in the absence of binding to or agonistic activation of Tie2” (EMBO Molecular Medicine, 2015).
